According to paper PMC8808171, “Nonselective TRPC channel inhibition and suppression of aminoglycoside-induced premature termination codon readthrough by the small molecule AC1903” (The Journal of Biological Chemistry, 2022):

Experiments:
TRPC3:C3 = molecular target: T1, TRPC3:C3 (Homo sapiens, UniProt Q13507); test: [Ca2+]i recordings (Fura-2), TRPC3:C3 in HEK T-REx cells; assay type: cell-based
T1 construct: expressed in transfected cells
Procedure: (§1) Based on the findings described above, we wondered whether AC1903—which is typically used as a TRPC5 inhibitor at concentrations of 30–100 μM in cellular assays ([29], [56])—might have limited selectivity for TRPC5 channels and whether its effect on intracellular G418 levels and PTC readthrough might be the consequence of inhibition of other or multiple targets. All well-characterized TRPC channel inhibitors reported to date modulate multiple TRP(C) channels ([34], [35], [36]). […] Because limited data for the selectivity of AC1903 are available in the public domain, we decided to profile AC1903 against a selection of calcium-permeable cation channels by intracellular calcium ([Ca^2+]i) recordings using well-characterized cell lines and TRP channel activators ([46], [57], [58]), and the Ca^2+ indicator Fura-2. In these assays, cells (HEK 293, HEK T-REx, or CHO) overexpressing the relevant ion channel protein and loaded with Fura-2 AM (a cell-permeable precursor of Fura-2) were preincubated with various concentrations of AC1903 or vehicle (DMSO) for 30 min. Then, changes in ratiometric fluorescence (from background) were recorded upon addition of the respective ion channel activator. […]

TRPV4:V4 = molecular target: T2, TRPV4:V4 (Homo sapiens, UniProt Q9HBA0); test: [Ca2+]i recordings (Fura-2), TRPV4:V4 in CHO cells; assay type: cell-based; conditions: activator 4α-PDD
T2 construct: expressed in transfected cells
T2 sequence (Q9HBA0 whole entry): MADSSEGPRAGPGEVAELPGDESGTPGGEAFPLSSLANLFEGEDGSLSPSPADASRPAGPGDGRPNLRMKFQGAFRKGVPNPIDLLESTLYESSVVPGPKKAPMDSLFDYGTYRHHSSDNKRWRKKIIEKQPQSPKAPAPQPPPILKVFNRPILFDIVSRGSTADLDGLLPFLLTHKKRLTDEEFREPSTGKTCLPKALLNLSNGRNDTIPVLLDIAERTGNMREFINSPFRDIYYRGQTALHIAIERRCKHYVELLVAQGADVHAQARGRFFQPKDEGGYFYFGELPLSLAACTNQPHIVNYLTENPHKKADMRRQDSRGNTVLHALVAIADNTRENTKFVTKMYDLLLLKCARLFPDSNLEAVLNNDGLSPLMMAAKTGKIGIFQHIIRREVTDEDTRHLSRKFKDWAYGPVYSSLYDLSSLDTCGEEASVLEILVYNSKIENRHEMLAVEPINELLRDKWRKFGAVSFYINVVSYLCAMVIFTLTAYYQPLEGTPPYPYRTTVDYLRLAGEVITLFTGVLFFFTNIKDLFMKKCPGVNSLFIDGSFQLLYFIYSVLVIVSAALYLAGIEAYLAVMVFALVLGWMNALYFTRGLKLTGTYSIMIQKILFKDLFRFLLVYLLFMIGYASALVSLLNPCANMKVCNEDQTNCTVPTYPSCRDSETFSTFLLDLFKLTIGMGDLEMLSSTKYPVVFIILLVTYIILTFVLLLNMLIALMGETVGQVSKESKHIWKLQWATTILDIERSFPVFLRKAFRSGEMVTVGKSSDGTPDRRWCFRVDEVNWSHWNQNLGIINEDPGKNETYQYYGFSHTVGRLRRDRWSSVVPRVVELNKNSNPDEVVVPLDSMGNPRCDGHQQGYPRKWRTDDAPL
Procedure: as §1

T1 sequence (Q13507 whole entry): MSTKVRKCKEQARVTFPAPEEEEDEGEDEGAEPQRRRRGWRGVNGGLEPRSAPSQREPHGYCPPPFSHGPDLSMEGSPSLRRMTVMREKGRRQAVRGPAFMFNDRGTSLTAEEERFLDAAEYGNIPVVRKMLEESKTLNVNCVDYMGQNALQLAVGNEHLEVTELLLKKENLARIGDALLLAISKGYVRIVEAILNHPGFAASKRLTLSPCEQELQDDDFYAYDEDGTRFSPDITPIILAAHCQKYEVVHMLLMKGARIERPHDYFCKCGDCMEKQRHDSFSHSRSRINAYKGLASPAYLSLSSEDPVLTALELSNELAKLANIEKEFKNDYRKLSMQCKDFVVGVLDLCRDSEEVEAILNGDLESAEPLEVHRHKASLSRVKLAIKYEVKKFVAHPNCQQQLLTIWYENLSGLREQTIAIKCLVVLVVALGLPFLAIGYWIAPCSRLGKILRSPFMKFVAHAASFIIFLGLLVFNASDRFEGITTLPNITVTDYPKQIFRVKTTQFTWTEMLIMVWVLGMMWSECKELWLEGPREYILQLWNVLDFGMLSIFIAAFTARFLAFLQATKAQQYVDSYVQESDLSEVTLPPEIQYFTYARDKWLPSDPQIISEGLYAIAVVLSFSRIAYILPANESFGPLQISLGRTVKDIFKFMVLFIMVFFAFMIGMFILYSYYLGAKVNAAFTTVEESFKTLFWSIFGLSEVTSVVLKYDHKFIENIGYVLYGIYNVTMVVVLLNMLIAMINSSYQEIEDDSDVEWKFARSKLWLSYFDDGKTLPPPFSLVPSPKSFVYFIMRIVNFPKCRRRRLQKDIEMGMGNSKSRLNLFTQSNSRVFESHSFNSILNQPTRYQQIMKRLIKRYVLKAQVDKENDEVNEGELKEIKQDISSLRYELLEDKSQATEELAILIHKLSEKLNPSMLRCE

IC50 (TRPC3:C3; HEK T-REx, activator OAG (100 μM)): 5.2 µM
Hill slope (TRPC3:C3; activator OAG): -1.4
IC50 (TRPV4:V4; CHO): 19 µM
Hill slope (TRPV4:V4): -1.7
SMILES: c1ccc(Cn2c(NCc3ccco3)nc3ccccc32)cc1 [AC1903]
